Assay results as given in patent EP4678638A1, “NEW E3 UBIQUITIN LIGASE LIGAND, PROTEIN DEGRADATION AGENT AND USE THEREOF” (priority 2023, dated 2024).

Legend:
PC-9 = assay: CCK-8 proliferation, PC-9; format: cell-based, Human; conditions: Homo sapiens, PC-9; CCK-8; 96 hours; read-out: Inhibitory activity (IC50) on tumor cell proliferation, PC-9
Method: (§1) The tumor cells used herein were cultured in a cell culture medium listed in table A1 at 37°C in an incubator with 5% CO2. Prior to experimentation, all cell lines used were correctly identified by STR profiling, and tested negative for mycoplasma contamination using a mycoplasma detection kit through routine screenings. Table A1. Tumor cells and cell culture medium used in the present disclosure
(§2) IC50 values of the compounds of the present disclosure (including the compounds in Table 1, and compounds of examples) were measured using the Meilun Cell Counting Kit-8 kit from Dalian Meilun Biotech Co., Ltd. Assay details are as follows: tumor cells were seeded in a 96-well plate at a density listed in Table A2. After 24h, 100 µL of the inoculated cells were treated with 0.5µL of the compounds of the present disclosure (including the compounds in Tables 1 and 2, and compounds of examples) at 10 different successively decreasing concentrations (starting at the highest concentration of 10µM; 5-fold serial dilutions). After the cells were treated with the compounds of the present disclosure for a period of time, the cell viability detection reagent was added to the culture medium for cell viability assessment according to the instructions provided with the CCK-8 kit. […] The growth inhibition of the compounds of the present disclosure on cells was plotted by Prism Graphpad software, and the IC50 values of the compounds of the present disclosure were calculated therefrom. […] Seeding protocol and treatment time for tumor cells

EGFR = assay: Western blot degradation of EGFR (H1975 Cell); format: cell-based, Human; conditions: Table D2
Procedure, shortened: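 Quantification by ImageJ densitometry of Western blot bands: DC50 is the fitted concentration halving band intensity relative to DMSO. Percent remaining uses internal-control normalization, and degradation rate is its complement.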

HCC827 = assay: CCK-8 proliferation, HCC827; format: cell-based, Human; conditions: Homo sapiens, HCC827; CCK-8; 96 hours; read-out: Inhibitory activity (IC50) on tumor cell proliferation, HCC827
Method: as §1, §2

H1975 = assay: CCK-8 proliferation, NCI-H1975 (H1975); format: cell-based, Human; conditions: Homo sapiens, NCI-H1975; CCK-8; 96 hours; read-out: Inhibitory activity (IC50) on tumor cell proliferation, H1975
Procedure, shortened: (§3)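 Cells seeded, then after 24 h treated with 10 concentrations (top 10 µM, 5-fold serial dilution) for a line-specific time at 37°C, 5% CO2. Viability read by CCK-8; IC50 fitted from growth-inhibition curves.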

MGC-803 = assay: CCK-8 proliferation, MGC-803 (heads: MGC80-3, MGC803); format: cell-based, Human; conditions: Homo sapiens, MGC-803; Table B10, compounds designed based on the IRAK4 inhibitors; MGC803 cells; read-out: Inhibitory activity (IC50, nM) on tumor cell proliferation, MGC803
Method: as §1, §2

MM.1S = assay: CCK-8 proliferation, MM.1S; format: cell-based; conditions: Homo sapiens, MM1.S; Table B10, compounds designed based on the IRAK4 inhibitors; MM.1S cells; read-out: Inhibitory activity (IC50, nM) on tumor cell proliferation, MM.1S
Procedure, shortened: as §3

Structure (SMILES): O=C1CCC(c2ccc(CN3CCN(c4ccc(Nc5ncc6nc(Nc7ccccc7)n(C7CCCC7)c6n5)cc4)CC3)cc2)C(=O)N1 (stereo not drawn) [GT-03740, 3-(4-((4-(4-((9-cyclopentyl-8-(phenylamino)-9H-purin-2-yl)amino)phenyl)piperazin-1-yl)methyl)phenyl)piperidine-2,6-dione]
- IC50 (PC-9): 10 to 50 nM
- Degradation of substrate protein EGFR (substrate protein remaining %) (EGFR): A (A is defined as 0% ≤ substrate protein remaining % ≤ 80%)
- IC50 (HCC827): 10 to 50 nM

Structure (SMILES): O=C1CCC(c2ccc(CN3CCN(c4ccc(Nc5ncc6nc(Nc7ccccc7)n(C7CCCC7)c6n5)cc4)CC3)cc2F)C(=O)N1 (stereo not drawn) [GT-03741, 3-(4-((4-(4-((9-cyclopentyl-8-(phenylamino)-9H-purin-2-yl)amino)phenyl)piperazin-1-yl)methyl)-2-fluorophenyl)piperidine-2,6-dione]
- IC50 (PC-9): 10 to 50 nM
- IC50 (HCC827): 10 to 50 nM

Structure (SMILES): CN(Cc1ccc(C2CCC(=O)NC2=O)cc1)C1CCN(c2ccc(Nc3ncc4nc(Nc5ccccc5)n(C5CCCC5)c4n3)cc2)CC1 (stereo not drawn) [GT-03863, 3-(4-(((1-(4-((9-cyclopentyl-8-(phenylamino)-9H-purin-2-yl)amino)phenyl)piperidin-4-yl)(methyl)amino)methyl)phenyl)piperidine-2,6-dione]
- IC50 (PC-9): 1 to 10 nM
- IC50 (H1975): 100 to 500 nM
- Degradation of substrate protein EGFR (substrate protein remaining %) (EGFR): A (A is defined as 0% ≤ substrate protein remaining % ≤ 80%)
- IC50 (HCC827): 1 to 10 nM

Structure (SMILES): CN(Cc1ccc(C2CCC(=O)NC2=O)c(F)c1)C1CCN(c2ccc(Nc3ncc4nc(Nc5ccccc5)n(C5CCCC5)c4n3)cc2)CC1 (stereo not drawn) [GT-03864, 3-(4-(((1-(4-((9-cyclopentyl-8-(phenylamino)-9H-purin-2-yl)amino)phenyl)piperidin-4-yl)(methyl)amino)methyl)-2-fluorophenyl)piperidine-2,6-dione]
- IC50 (PC-9): 1 to 10 nM
- IC50 (H1975): 100 to 500 nM
- Degradation of substrate protein EGFR (substrate protein remaining %) (EGFR): A (A is defined as 0% ≤ substrate protein remaining % ≤ 80%)
- IC50 (HCC827): 1 to 10 nM

Structure (SMILES): O=C1CCN(c2ccc(CN3CCN(c4ccc(Nc5ncc6nc(Nc7ccccc7)n(C7CCCC7)c6n5)cc4)CC3)cc2)C(=O)N1 [GT-05837, 1-(4-((4-(4-((9-cyclopentyl-8-(phenylamino)-9H-purin-2-yl)amino)phenyl)piperazin-1-yl)methyl)phenyl)dihydropyrimidine-2,4(1H,3H)-dione]
- IC50 (PC-9): 1 to 10 nM
- IC50 (H1975): 100 to 500 nM
- IC50 (HCC827): 1 to 10 nM

Structure (SMILES): O=C1CCN(c2cccc(CN3CCN(c4ccc(Nc5ncc6nc(Nc7ccccc7)n(C7CCCC7)c6n5)cc4)CC3)c2)C(=O)N1 [GT-05838, 1-(3-((4-(4-((9-cyclopentyl-8-(phenylamino)-9H-purin-2-yl)amino)phenyl)piperazin-1-yl)methyl)phenyl)dihydropyrimidine-2,4(1H,3H)-dione]
- IC50 (PC-9): 1 to 10 nM
- IC50 (H1975): 100 to 500 nM
- Degradation of substrate protein EGFR (substrate protein remaining %) (EGFR): A (A is defined as 0% ≤ substrate protein remaining % ≤ 80%)
- IC50 (HCC827): 1 to 10 nM

Structure (SMILES): O=C1CCN(c2ccc(CN3CCN(c4ccc(Nc5ncc6nc(Nc7ccccc7)n(C7CCCC7)c6n5)cc4)CC3)nc2)C(=O)N1 [GT-05839, 1-(6-((4-(4-((9-cyclopentyl-8-(phenylamino)-9H-purin-2-yl)amino)phenyl)piperazin-1-yl)methyl)pyridin-3-yl)dihydropyrimidine-2,4(1H,3H)-dione]
- IC50 (PC-9): 1 to 10 nM
- IC50 (H1975): 100 to 500 nM
- Degradation of substrate protein EGFR (substrate protein remaining %) (EGFR): A (A is defined as 0% ≤ substrate protein remaining % ≤ 80%)
- IC50 (HCC827): 10 to 50 nM

Structure (SMILES): O=C1CCN(c2ccc(CN3CCN(c4ccc(Nc5ncc6nc(Nc7ccccc7)n(C7CCCC7)c6n5)cc4)CC3)cn2)C(=O)N1 [GT-05840, 1-(5-((4-(4-((9-cyclopentyl-8-(phenylamino)-9H-purin-2-yl)amino)phenyl)piperazin-1-yl)methyl)pyridin-2-yl)dihydropyrimidine-2,4(1H,3H)-dione]
- IC50 (PC-9): 1 to 10 nM
- IC50 (H1975): 100 to 500 nM
- Degradation of substrate protein EGFR (substrate protein remaining %) (EGFR): A (A is defined as 0% ≤ substrate protein remaining % ≤ 80%)
- IC50 (HCC827): 10 to 50 nM

Structure (SMILES): O=C1CCC(Nc2cccc(CN3CCN(c4ccc(Nc5ncc6nc(Nc7ccccc7)n(C7CCCC7)c6n5)cc4)CC3)c2)C(=O)N1 (stereo not drawn) [GT-05841, 3-((3-((4-(4-((9-cyclopentyl-8-(phenylamino)-9H-purin-2-yl)amino)phenyl)piperazin-1-yl)methyl)phenyl)amino)piperidine-2,6-dione]
- IC50 (PC-9): 10 to 50 nM
- Degradation of substrate protein EGFR (substrate protein remaining %) (EGFR): A (A is defined as 0% ≤ substrate protein remaining % ≤ 80%)
- IC50 (HCC827): 10 to 50 nM

Structure (SMILES): CN(Cc1cccc(N2CCC(=O)NC2=O)c1)C1CCN(c2ccc(Nc3ncc4nc(Nc5ccccc5)n(C5CCCC5)c4n3)cc2)CC1 [GT-05870, 1-(3-(((1-(4-((9-cyclopentyl-8-(phenylamino)-9H-purin-2-yl)amino)phenyl)piperidin-4-yl)(methyl)amino)methyl)phenyl)dihydropyrimidine-2,4(1H,3H)-dione]
- IC50 (PC-9): 1 to 10 nM
- IC50 (H1975): 100 to 500 nM
- Degradation of substrate protein EGFR (substrate protein remaining %) (EGFR): A (A is defined as 0% ≤ substrate protein remaining % ≤ 80%)
- IC50 (HCC827): 10 to 50 nM

Structure (SMILES): CN(Cc1ccc(N2CCC(=O)NC2=O)nc1)C1CCN(c2ccc(Nc3ncc4nc(Nc5ccccc5)n(C5CCCC5)c4n3)cc2)CC1 [GT-05871, 1-(5-(((1-(4-((9-cyclopentyl-8-(phenylamino)-9H-purin-2-yl)amino)phenyl)piperidin-4-yl)(methyl)amino)methyl)pyridin-2-yl)dihydropyrimidine-2,4(1H,3H)-dione]
- IC50 (PC-9): 1 to 10 nM
- IC50 (H1975): 100 to 500 nM
- IC50 (HCC827): 10 to 50 nM

Structure (SMILES): O=C1CCN(c2cccc(CN3CCN(C4CCN(c5ccc(Nc6ncc7nc(Nc8ccccc8)n(C8CCCC8)c7n6)cc5)CC4)CC3)c2)C(=O)N1 [GT-05940, 1-(3-((4-(1-(4-((9-cyclopentyl-8-(phenylamino)-9H-purin-2-yl)amino)phenyl)piperidin-4-yl)piperazin-1-yl)methyl)phenyl)dihydropyrimidine-2,4(1H,3H)-dione]
- IC50 (PC-9): 1 to 10 nM
- IC50 (H1975): 100 to 500 nM
- Degradation of substrate protein EGFR (substrate protein remaining %) (EGFR): A (A is defined as 0% ≤ substrate protein remaining % ≤ 80%)
- IC50 (HCC827): 1 to 10 nM

Structure (SMILES): O=C1CCN(c2ccc(CN3CCN(C4CCN(c5ccc(Nc6ncc7nc(Nc8ccccc8)n(C8CCCC8)c7n6)cc5)CC4)CC3)nc2)C(=O)N1 [GT-05941, 1-(6-((4-(1-(4-((9-cyclopentyl-8-(phenylamino)-9H-purin-2-yl)amino)phenyl)piperidin-4-yl)piperazin-1-yl)methyl)pyridin-3-yl)dihydropyrimidine-2,4(1H,3H)-dione]
- IC50 (PC-9): 1 to 10 nM
- IC50 (H1975): 100 to 500 nM
- Degradation of substrate protein EGFR (substrate protein remaining %) (EGFR): A (A is defined as 0% ≤ substrate protein remaining % ≤ 80%)
- IC50 (HCC827): 10 to 50 nM

Structure (SMILES): O=C1CCC(Nc2cccc(CN3CCN(C4CCN(c5ccc(Nc6ncc7nc(Nc8ccccc8)n(C8CCCC8)c7n6)cc5)CC4)CC3)c2)C(=O)N1 (stereo not drawn) [GT-05943, 3-((3-((4-(1-(4-((9-cyclopentyl-8-(phenylamino)-9H-purin-2-yl)amino)phenyl)piperidin-4-yl)piperazin-1-yl)methyl)phenyl)amino)piperidine-2,6-dione]
- IC50 (PC-9): 10 to 50 nM
- Degradation of substrate protein EGFR (substrate protein remaining %) (EGFR): A (A is defined as 0% ≤ substrate protein remaining % ≤ 80%)
- IC50 (HCC827): 10 to 50 nM

Structure (SMILES): Cc1cc(-c2nc(C(=O)Nc3cc4oc(N5CCOCC5)nc4nc3N3CC[C@@H](O)C3)co2)ccn1 [emavusertib, reference compound]
- IC50 (MGC-803): > 10000 nM
- IC50 (MM.1S): > 10000 nM
